The values that follow come from ChEMBL document CHEMBL1129601, “Inhibitors of acyl-CoA: cholesterol O-acyl transferase (ACAT) as hypocholesterolemic agents. CI-1011: an acyl sulfamate with unique cholesterol-lowering activity in animals fed noncholesterol-supplemented diets” (J Med Chem, 1996).

The structures appear in SMILES notation.

What all share (type): ADME
The nature of data set [1]: Solution Degradation Studies measured by compound unchanged at pH 0.4=50% 1 M HCl/50% acetonitrile at 0 hours. The settings on record: 50% 1 M HCl / 50% acetonitrile solution, read-out: Unchanged.
A short description of data set [2]: Solution Degradation Studies measured by compound unchanged at pH 0.4=50% 1 M HCl/50% acetonitrile at 24 hours. The settings on record: 50% 1 M HCl / 50% acetonitrile solution, read-out: Unchanged.
Data set [3] in a line: Solution Degradation Studies measured by compound unchanged at pH 0.4=50% 1 M HCl/50% acetonitrile at 4 hours. The settings on record: 50% 1 M HCl / 50% acetonitrile solution, read-out: Unchanged.
The nature of data set [4]: Solution Degradation Studies measured by compound unchanged at pH 0.4=50% 1 M HCl/50% acetonitrile at 8 hours. The settings on record: 50% 1 M HCl / 50% acetonitrile solution, read-out: Unchanged.
Data set [5] in a line: Solution Degradation Studies measured by compound unchanged at pH 6.4 = 50% water / 50% acetonitrile at 0 hours. The settings on record: 50% water / 50% acetonitrile solution, read-out: Unchanged.
Data set [6] in a line: Solution Degradation Studies measured by compound unchanged at pH 6.4 = 50% water / 50% acetonitrile at 2 hours. The settings on record: 50% water / 50% acetonitrile solution, read-out: Unchanged.
Data set [7] is described as follows: Solution Degradation Studies measured by compound unchanged at pH 6.4 = 50% water / 50% acetonitrile at 24 hours. Conditions: 50% water / 50% acetonitrile solution, read-out: Unchanged.
Data set [8] can be described thus: Solution Degradation Studies measured by compound unchanged at pH 6.4 = 50% water / 50% acetonitrile at 4 hours. The settings on record: 50% water / 50% acetonitrile solution, read-out: Unchanged.
A short description of data set [9]: Solution Degradation Studies measured by compound unchanged at pH 6.4 = 50% water / 50% acetonitrile at 8 hours. The settings on record: 50% water / 50% acetonitrile solution, read-out: Unchanged.
Data set [10] can be described thus: Solution Degradation Studies measured by compound unchanged at pH 0.4=50% 1 M HCl/50% acetonitrile at 2 hours. The settings on record: 50% 1 M HCl / 50% acetonitrile solution, read-out: Unchanged.
The nature of data set [11]: Solution Degradation Studies measured by compound unchanged at pH 0.4=50%1 M HCl/50% acetonitrile at 0 hours. The settings on record: 50% 1 M HCl / 50% acetonitrile solution, read-out: Unchanged.
Data set [12] in a line: Solution Degradation Studies measured by compound unchanged at pH 0.4=50%1 M HCl/50% acetonitrile at 2 hours. Conditions: 50% 1 M HCl / 50% acetonitrile solution, read-out: Unchanged.
A short description of data set [13]: Solution Degradation Studies measured by compound unchanged at pH 0.4=50%1 M HCl/50% acetonitrile at 24 hours. Conditions: 50% 1 M HCl / 50% acetonitrile solution, read-out: Unchanged.
The nature of data set [14]: Solution Degradation Studies measured by compound unchanged at pH 0.4=50%1 M HCl/50% acetonitrile at 4 hours. The settings on record: 50% 1 M HCl / 50% acetonitrile solution, read-out: Unchanged.
The nature of data set [15]: Solution Degradation Studies measured by compound unchanged at pH 0.4=50%1 M HCl/50% acetonitrile at 8 hours. Conditions: 50% 1 M HCl / 50% acetonitrile solution, read-out: Unchanged.

Take `CC(C)c1cccc(C(C)C)c1OC(=O)NS(=O)(=O)Oc1c(C(C)C)cccc1C(C)C` [listing 1 of 2 here]: the remaining at 0 h in data set [1] and in [5] was 95% in each case. For the same molecule, the figures for the remaining at 24 h in [2] and in data set [7] were 23% and 37%, respectively. Also, the values for the remaining at 4 h in data set [3] and in [8] were 80% and 85%, respectively. The remaining at 8 h in data set [4] stood at 66%; in data set [9], 74%. In addition, the remaining at 2 h came to 87% in [6] and 88% in data set [10].

For `Cc1cccc(C)c1OC(=O)NS(=O)(=O)Oc1c(C(C)C)cccc1C(C)C`, the remaining at 0 h in [1] amounted to 93%; in [5] it was 94%. Also, the values for the remaining at 24 h in data set [2] and in data set [7] were 5% and 20%, respectively. In addition, the remaining at 4 h amounted to 57% in data set [3] and 65% in data set [8]. Moreover, the remaining at 8 h was found to be 37% in data set [4] and 48% in data set [9]. Also, the results for the remaining at 2 h in data set [6] and in data set [10] were 79% and 71%, respectively.

Take `CC(C)c1cccc(C(C)C)c1OC(=O)NS(=O)(=O)Oc1c(C(C)C)cccc1C(C)C` [listing 2 of 2 here]: the remaining at 0 h in data set [11] and in data set [5] was 100% each time. In addition, the remaining at 2 h in data set [12] amounted to 92%; in [6], 100%. Besides, the values for the remaining at 24 h in data set [13] and in data set [7] were 25% and 100%, respectively. The remaining at 4 h in [14] was found to be 83%; in data set [8], 100%. Besides, the values for the remaining at 8 h in data set [15] and in data set [9] were 68% and 100%, respectively.

Regarding `CC(C)c1cccc(C(C)C)c1OS(=O)(=O)NC(=O)Oc1c(C(C)(C)C)cccc1C(C)(C)C`, the remaining at 0 h in [1] and in data set [5] was 100% each time. The values for the remaining at 24 h in data set [2] and in [7] were 97% and 98%, respectively. Besides, the remaining at 4 h in data set [3] and in data set [8] was 99% each time. In addition, the remaining at 8 h in data set [4] was 98%; in data set [9], 99%. Also, the remaining at 2 h in data set [6] and in [10] was 100% throughout.
